From US5439922A, “Piperidyl-substituted indoles for treating anxiety” (H. Lundbeck A/S, priority 1990, dated 1995)
“Also recorded” adds a separate entry of the source. Like-named read-outs stand apart in the source and are kept apart here.

What was measured:
[1] = Catalepsy test (rat, vertical wire mesh, s.c.); conditions: sc
From the text: Evaluation of catalepsy was made according to Arnt (Eur. J. Pharmacol. 90, 47-55 (1983)). Catalepsy is an indicator of dopamine receptor blockade in vivo which corrolates to the clinical potency of the classical neuroleptics. However, catalepsy is also considered to indicate extrapyramidal side effects (Arnt, J. et al.; Neuropharrnacology 1981, 20, 1331-1334.
In this test test compound is given s.c. in different doses. The rat (170-240 g )is placed on a vertical wire mesh (mesh diameter 12 mm ). The rat is considered cataleptogenic if it remains immobile for more than 15 sec. The maximum number of rats showing catalepsy within the first 6 hours is recorded for each dose group. The results are recorded in fractions and an ED50 value is calculated by means of log-probit analysis.
The following corresponding 1-aryl-3-(1,2,3,6-tetrahydropyridyl)- or 1-aryl-3-(piperazinyl)indole derivatives which are analogues of Lu 23-174 and Compound No 12, respectively, were included in the test as comparing compounds:
A) 1-(4-Fluorophenyl)-3-[1-[2-(2-imidazolidinon-1-yl)ethyl]-1,2,3,6-tetrahydropyridin-4-yl]-5-trifluoromethyl-1H-indole
B) 5-Chloro-1-(4-fluorophenyl)-3-[1-[2-(2-imidazolidinon-1-yl)ethyl]-1,2,3,6- tetrahydro-4-pyridyl]-1H-indole
C) 5-Chloro-1-(4-fluorophenyl)-3-[4-[2-(2-imidazolidinon-1-yl)ethyl]-1-piperazinyl]-1H-indole

[2] = Inhibition of isolation induced aggression in mice; type: in vivo, mouse (male NMRI/BOM, SPF); conditions: for ED50: Mus musculus
From the text: This test is used to evaluate the ability of a test substance to inhibit isolation induced aggressive behaviour in mice and is considered to be a test model for anxiolytic effect. The method is a modified version of the method described by McMillen et al. in Drug Develop. Research 12, 53-62, 1988.
Male mice (NMRI/BOM,SPF) weighing 16-18 g were used. The mice were housed individually in macrolon cages for 3 weeks before training to attack an intruder mouse. The mice were trained daily for a period of 1-2 weeks until a satisfactory respons was obtained. During the first days the mice were trained against each other. When a satisfactory respons was obtained group-housed mice were used as intruders. The time elapsed until attack was recorded. The intruder mouse was removed as soon as an attack had occured or after 180 sec. After the training period 60-70 percent of the mice had latencies of less than 10 sec.
The mice were pretested before drug treatment. Only mice attacking within 25 sec. were used. The animals were treated with test substance or saline. The mice were tested 30 or 120 minutes later, respectively. Nonspecific motoric effects were also recorded. 8 mice were used per group.
The results were stated as fractions of mice with attack latencies greater than or equal to a threshold value. As threshold values were used 180 and 90 sec. ED50 values were calculated by log-probit analysis.
The results are given in the following table as ED50 values in μmol/kg. The known compounds diazepam, buspirone and ritanserin were included in the test for the purpose of comparison.

[3] = Light/dark discrimination test in rats; type: in vivo, rat (Wistar WU); conditions: rat, s.c.; observation 2h
Procedure: The test was carried out similarly to the test in mice described above, however modified in accodance with F. C. Colpaert et al., Psychopharmacology (1985) 86: 45-54. The test used Wistar WU rats.

[4] = Light/dark discrimination test in mice (two compartment activity box); type: in vivo, mouse (male albino BKW); conditions: mouse, i.p.
Procedure: This test was carried out in accordance with the method described in Costall et al. Br. J. Pharmacol. 90 275P (1987).
The test was conducted using a two compartment activity box in which the actions of anxiolytic compounds to reduce aversion against a brightly-lit environment may be readily detected. The box is designed as an open-top experimental box (45*27*27 cm) one third of which was partitioned from the rest, painted black and illuminated with red light. The remainder of the box was painted white and brightly illuminated (1000 W). The floor of each area was lined into squares. Behavioural changes were determined for each area from video recordings for periods of 40 min. Data obtained from dose groups of 5 animals (male albino BKW mice, 25-30 g ) were analysed using single factor analysis of variance, and Dunnett's t-test. Test compounds were given intrapentoneally 45 min before testing.
The results are given in the following Table 2 as minimum doses (mg/kg i.p.) tested showing effect (p<0.001). The behavioural change used were exploratory rearings and line crossings.
The known substances diazepam, and ondansetron were included in the test for comparison purposes.

[5] = 0.5 h, attack latency threshold 90 sec., 30 min pretreatment, read-out: ED50, threshold 90 sec., 30 min pretreatment
[6] = 0.5 h, attack latency threshold 180 sec., 30 min pretreatment, read-out: ED50, threshold 180 sec., 30 min pretreatment
[7] = 2 h, attack latency threshold 90 sec., 120 min pretreatment, read-out: ED50, threshold 90 sec., 120 min pretreatment
[8] = 2 h, attack latency threshold 180 sec., 120 min pretreatment, read-out: ED50, threshold 180 sec., 120 min pretreatment

`O=C1NCCN1CCN1CC=C(c2cn(-c3ccc(F)cc3)c3ccc(C(F)(F)F)cc23)CC1` [A, 1-(4-Fluorophenyl)-3-[1-[2-(2-imidazolidinon-1-yl)ethyl]-1,2,3,6-tetrahydropyridin-4-yl]-5-trifluoromethyl-1H-indole, reference compound] gave an ED50 at 6 h ([1]; in vivo) of 0.49 µmol/kg.

In the case of `O=C1NCCN1CCN1CC=C(c2cn(-c3ccc(F)cc3)c3ccc(Cl)cc23)CC1` [B, 5-Chloro-1-(4-fluorophenyl)-3-[1-[2-(2-imidazolidinon-1-yl)ethyl]-1,2,3,6-tetrahydro-4-pyridyl]-1H-indole, reference compound], the ED50 at 6 h ([1]; in vivo) is reported as 2.2 µmol/kg.

`O=C1CC2(CCCC2)CC(=O)N1CCCCN1CCN(c2ncccn2)CC1` [Buspirone] showed an ED50 [2, 5] of 9.6 µmol/kg and an ED50 [2, 6] of 5.4 µmol/kg.

Compound `O=C1NCCN1CCN1CCN(c2cn(-c3ccc(F)cc3)c3ccc(Cl)cc23)CC1` [C, 5-Chloro-1-(4-fluorophenyl)-3-[4-[2-(2-imidazolidinon-1-yl)ethyl]-1-piperazinyl]-1H-indole, reference compound] has an ED50 at 6 h ([1]; rat) of 4.5 µmol/kg.

With `O=C1OCCN1CCN1CCC(c2cn(-c3ccc(F)cc3)c3ccc(Cl)cc23)CC1` [Compound 2, 5-chloro-1-(4-fluorophenyl)-3-[1-[2-(2-oxazolidinon-1-yl)ethyl]-4-piperidyl]-1H-indole] the ED50 at 6 h ([1]; rat) was > 18 µmol/kg.

Work on `CN1CCN(CCN2CCC(c3cn(-c4ccc(F)cc4)c4ccc(Cl)cc34)CC2)C1=O` [Compound 3, 5-chloro-1-(4-fluorophenyl)-3-[1-[2-(3-methyl-2-imidazolidinon-1-yl)ethyl]-4-piperidyl]1H-indole] yielded an ED50 at 6 h ([1]; in vivo) of 31 µmol/kg.

With `O=C1CCCN1CCN1CCC(c2cn(-c3ccc(F)cc3)c3ccc(Cl)cc23)CC1` [Compound 4, 5-chloro-1-(4-fluorophenyl)-3-[1-[2-(2-pyrrolidinon-1-yl)ethyl]-4-piperidyl]-1H-indole] the ED50 at 6 h ([1]; in vivo) was 23 µmol/kg.

Compound `O=C1NCCN1CCN1CCC(c2cn(-c3ccc(F)cc3)c3ccc(C(F)(F)F)cc23)CC1` [Compound 12, 1-(4-fluorophenyl)-3-[1-[2-(2-imidazolidinon-1-yl)ethyl]-4-piperidyl]-5-trifluomethyl-1H-indole] has an ED50 at 6 h ([1]; rat) of 38 µmol/kg.

With `CC(C)N1CCN(CCN2CCC(c3cn(-c4ccc(F)cc4)c4ccc(Cl)cc34)CC2)C1=O` [Compound 14, 5-chloro-1-(4-fluorophenyl)-3-[1-[2-[3-(2-propyl)-2-imidazolidinon-1-yl]ethyl]-4-piperidyl]-1H-indole] the ED50 at 6 h ([1]; rat) was > 69 µmol/kg.

With `O=C1NCCN1CCN1CCC(c2cn(-c3ccc(F)cc3)c3ccc(F)cc23)CC1` [Compound 16, 5-fluoro-1-(4-fluorophenyl)-3-[1-[2-(2-imidazolidinon-1-yl)ethyl]-4-piperidyl]-1H-indole] the ED50 [2, 7] was 2.1 µmol/kg, the ED50 [2, 8] was 1.6 µmol/kg and the ED50 at 6 h ([1]; rat) was > 78 µmol/kg.

With `Cc1ccc2c(c1)c(C1CCN(CCN3CCNC3=O)CC1)cn2-c1ccc(F)cc1` [Compound 24, 1-(4-fluorophenyl)-3-[1-[2-(2-imidazolidinon-1-yl)ethyl]-4-piperidyl]-5-methyl-1H-indole] the ED50 [2, 7] was 3.2 µmol/kg, the ED50 [2, 8] was 2.5 µmol/kg and the ED50 at 6 h ([1]; rat) was > 95 µmol/kg.

`CN1C(=O)CN=C(c2ccccc2)c2cc(Cl)ccc21` [Diazepam] gave an ED50 ([2]; 0.5 h, read-out: ED50, threshold 90 sec., 30 min pretreatment) of 26 µmol/kg and an ED50 ([2]; 0.5 h, read-out: ED50, threshold 180 sec., 30 min pretreatment) of 15 µmol/kg.

`O=C1NCCN1CCN1CCC(c2cn(-c3ccc(F)cc3)c3ccccc23)CC1` [Lu 23-086, 1-(4-fluorophenyl)-3-[1-[2-(2-imidazolidinon-1-yl)ethyl]-4-piperidyl]-1H-indole] showed an ED50 [2, 7] of 1.9 µmol/kg and an ED50 [2, 8] of 1.7 µmol/kg.

In the case of `O=C1NCCN1CCN1CCC(c2cn(-c3ccc(F)cc3)c3ccc(Cl)cc23)CC1` [Lu 23-174, 5-chloro-1-(4-fluorophenyl)-3-[1-[2-(2-imidazolidinon-1-yl)ethyl]-4-piperidyl]-1H-indole], the ED50 [2, 5] is reported as 4.4 µmol/kg, the ED50 [2, 6] is reported as 3.2 µmol/kg and the ED50 at 6 h ([1]; rat) is reported as > 98 µmol/kg. The “Effect in light/dark discrimination test in rats (active dose in words)” value [3] was “showed effect in nano molar doses/kg”.

With `Cc1nc2sccn2c(=O)c1CCN1CCC(=C(c2ccc(F)cc2)c2ccc(F)cc2)CC1` [Ritanserin] the ED50 [2, 5] was > 21 µmol/kg, the ED50 [2, 6] was > 21 µmol/kg and the ED50 [2, 7] was > 10 µmol/kg. For the same compound, the ED50 [2, 8] was > 10 µmol/kg, the “Effect in the aggression test” value ([2]; mouse, in vivo) was “showed no effect” and the “Effect in light/dark discrimination test in mice” value [4] was “did not show effect; also recorded: inactive”. For the same compound, the “Effect in light/dark discrimination test in rats (active dose in words)” value [3] was “only active in μmolar doses/kg”.
